Data: ChEMBL document CHEMBL1140787, “Discovery of beta-benzamido hydroxamic acids as potent, selective, and orally bioavailable TACE inhibitors” (Bioorg Med Chem Lett, 2008)

What was measured:
[1] = target: Disintegrin and metalloproteinase domain-containing protein 17 (Sus scrofa, UniProt O77636); test: Inhibition of pig TACE
[2] = Permeability across human Caco-2 cell membrane; format: ADME, cell-based
[3] = system: Blood; test: Inhibition of LPS-stimulated TNFalpha release in human whole blood; format: functional, tissue-based
[4] = Half life in Sprague-Dawley rat at 2 mg/kg, iv; format: ADME, organism-based; set-up: dose 2 mg/kg, route intravenous; conditions: in vivo
[5] = Volume of distribution at steady state in Beagle dog at 2 mg/kg, iv; format: ADME, organism-based, Canis lupus familiaris; set-up: dose 2 mg/kg, route intravenous; conditions: in vivo, read-out: Vdss
[6] = Oral bioavailability in Beagle dog at 8 mg/kg; format: ADME, organism-based, Canis lupus familiaris; conditions: in vivo
[7] = target: Macrophage metalloelastase (Homo sapiens, UniProt P39900); test: Inhibition of MMP12
Chain of Macrophage metalloelastase (P39900 whole entry): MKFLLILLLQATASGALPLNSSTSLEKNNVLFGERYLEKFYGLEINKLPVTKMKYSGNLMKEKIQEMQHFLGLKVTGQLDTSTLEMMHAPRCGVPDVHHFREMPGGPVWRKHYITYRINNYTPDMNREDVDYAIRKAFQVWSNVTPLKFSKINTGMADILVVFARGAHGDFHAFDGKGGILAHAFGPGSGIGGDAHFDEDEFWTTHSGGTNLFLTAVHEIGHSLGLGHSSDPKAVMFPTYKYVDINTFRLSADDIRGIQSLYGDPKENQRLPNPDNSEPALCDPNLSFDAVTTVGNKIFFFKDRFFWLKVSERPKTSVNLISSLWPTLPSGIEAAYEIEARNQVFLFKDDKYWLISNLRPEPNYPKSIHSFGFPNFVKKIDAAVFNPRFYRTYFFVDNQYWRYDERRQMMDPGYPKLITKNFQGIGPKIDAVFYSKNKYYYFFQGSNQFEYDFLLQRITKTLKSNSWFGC

[8] = system: Mus musculus; test: Inhibition of LPS-induced TNFalpha production in po dosed mouse endotoxemia model; format: functional
[9] = Oral bioavailability in Sprague-Dawley rat at 40 mg/kg; format: ADME, organism-based; conditions: in vivo
[10] = AUC in Sprague-Dawley rat at 2 mg/kg, iv; format: ADME, organism-based; set-up: dose 2 mg/kg, route intravenous; conditions: plasma
[11] = target: Cytochrome P450 3A4 (Homo sapiens, UniProt P08684); test: Inhibition of CYP3A4 at 20 uM; format: ADME
Chain of Cytochrome P450 3A4 (P08684 whole entry): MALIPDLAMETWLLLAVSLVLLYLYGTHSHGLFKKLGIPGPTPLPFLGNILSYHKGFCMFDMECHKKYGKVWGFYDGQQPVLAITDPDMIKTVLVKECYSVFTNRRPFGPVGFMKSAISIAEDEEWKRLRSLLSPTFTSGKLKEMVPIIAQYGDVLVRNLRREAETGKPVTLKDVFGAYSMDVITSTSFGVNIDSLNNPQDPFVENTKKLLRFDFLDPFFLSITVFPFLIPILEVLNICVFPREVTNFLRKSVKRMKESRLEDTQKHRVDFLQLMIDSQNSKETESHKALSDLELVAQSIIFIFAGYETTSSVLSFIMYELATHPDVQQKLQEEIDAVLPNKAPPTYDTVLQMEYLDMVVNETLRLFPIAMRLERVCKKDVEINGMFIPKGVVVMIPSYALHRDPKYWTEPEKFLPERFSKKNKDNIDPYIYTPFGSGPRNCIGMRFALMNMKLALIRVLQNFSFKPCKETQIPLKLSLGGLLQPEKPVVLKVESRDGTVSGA

[12] = target: T1, Matrilysin (Homo sapiens, UniProt P09237); test: Inhibition of MMP7
T1 sequence (P09237 whole entry): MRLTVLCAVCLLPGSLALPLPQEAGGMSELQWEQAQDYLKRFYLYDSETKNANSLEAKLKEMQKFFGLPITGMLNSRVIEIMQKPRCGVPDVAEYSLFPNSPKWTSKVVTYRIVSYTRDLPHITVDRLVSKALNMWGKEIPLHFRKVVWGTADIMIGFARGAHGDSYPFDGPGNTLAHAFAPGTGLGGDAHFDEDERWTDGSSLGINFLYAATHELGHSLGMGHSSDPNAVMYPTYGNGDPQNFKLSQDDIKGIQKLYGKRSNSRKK

[13] = AUC in Beagle dog at 2 mg/kg, iv; format: ADME, organism-based, Canis lupus familiaris; set-up: dose 2 mg/kg, route intravenous; conditions: plasma
[14] = Fraction unbound in human serum; format: ADME, cell-free
[15] = target: Stromelysin-1 (Homo sapiens, UniProt P08254); test: Inhibition of MMP3
Chain of Stromelysin-1 (P08254 whole entry): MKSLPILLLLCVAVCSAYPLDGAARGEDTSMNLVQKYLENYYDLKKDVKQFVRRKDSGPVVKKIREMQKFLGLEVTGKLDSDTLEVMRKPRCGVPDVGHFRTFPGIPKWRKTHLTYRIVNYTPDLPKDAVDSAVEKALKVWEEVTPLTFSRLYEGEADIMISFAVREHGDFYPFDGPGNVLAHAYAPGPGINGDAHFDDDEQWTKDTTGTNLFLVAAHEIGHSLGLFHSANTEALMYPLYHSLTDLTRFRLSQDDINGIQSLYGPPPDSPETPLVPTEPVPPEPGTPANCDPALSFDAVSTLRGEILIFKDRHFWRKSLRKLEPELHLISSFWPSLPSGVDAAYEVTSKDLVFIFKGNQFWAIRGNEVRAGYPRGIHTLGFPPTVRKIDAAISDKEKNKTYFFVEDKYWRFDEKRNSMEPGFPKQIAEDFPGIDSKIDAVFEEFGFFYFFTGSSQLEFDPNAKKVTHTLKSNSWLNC

[16] = AUC in Sprague-Dawley rat at 40 mg/kg, po; format: ADME, organism-based; set-up: dose 40 mg/kg, route oral; conditions: plasma
[17] = system: Rattus norvegicus; test: Inhibition of LPS-induced TNFalpha production in po dosed rat endotoxemia model; format: functional
[18] = Clearance in Beagle dog at 2 mg/kg, iv; format: ADME, organism-based, Canis lupus familiaris; set-up: dose 2 mg/kg, route intravenous; conditions: in vivo
[19] = Tmax in Sprague-Dawley rat at 40 mg/kg, po; format: ADME, organism-based; set-up: dose 40 mg/kg, route oral; conditions: in vivo
[20] = Tmax in Beagle dog at 8 mg/kg, po; format: ADME, organism-based, Canis lupus familiaris; set-up: dose 8 mg/kg, route oral; conditions: in vivo
[21] = Half life in Beagle dog at 2 mg/kg, iv; format: ADME, organism-based, Canis lupus familiaris; set-up: dose 2 mg/kg, route intravenous; conditions: in vivo
[22] = Clearance in Sprague-Dawley rat at 2 mg/kg, iv; format: ADME, organism-based; set-up: dose 2 mg/kg, route intravenous; conditions: in vivo
[23] = Volume of distribution at steady state in Sprague-Dawley rat at 2 mg/kg, iv; format: ADME, organism-based; set-up: dose 2 mg/kg, route intravenous; conditions: in vivo, read-out: Vdss
[24] = AUC in Beagle dog at 8 mg/kg, po; format: ADME, organism-based, Canis lupus familiaris; set-up: dose 8 mg/kg, route oral; conditions: plasma
[25] = Fraction unbound in rat serum; format: ADME, cell-free
[26] = target: Stromelysin-2 (Homo sapiens, UniProt P09238); test: Inhibition of MMP10
Chain of Stromelysin-2 (P09238 whole entry): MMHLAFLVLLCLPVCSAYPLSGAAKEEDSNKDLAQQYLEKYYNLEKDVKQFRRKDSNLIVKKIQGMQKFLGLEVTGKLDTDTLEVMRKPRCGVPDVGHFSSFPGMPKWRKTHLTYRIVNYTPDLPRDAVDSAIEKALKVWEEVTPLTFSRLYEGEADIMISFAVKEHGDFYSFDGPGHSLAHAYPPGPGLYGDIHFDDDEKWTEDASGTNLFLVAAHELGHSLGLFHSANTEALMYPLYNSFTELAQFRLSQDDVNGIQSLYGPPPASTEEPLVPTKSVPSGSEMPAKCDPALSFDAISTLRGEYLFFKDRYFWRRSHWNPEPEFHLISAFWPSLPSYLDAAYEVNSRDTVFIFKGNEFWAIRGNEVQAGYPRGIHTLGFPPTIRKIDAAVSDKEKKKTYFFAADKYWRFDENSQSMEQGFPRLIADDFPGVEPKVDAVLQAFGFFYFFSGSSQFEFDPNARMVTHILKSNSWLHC

[27] = Fraction unbound in dog serum; format: ADME, cell-free, Canis lupus familiaris

Chain of Disintegrin and metalloproteinase domain-containing protein 17 (O77636 whole entry, the tested form may be a part): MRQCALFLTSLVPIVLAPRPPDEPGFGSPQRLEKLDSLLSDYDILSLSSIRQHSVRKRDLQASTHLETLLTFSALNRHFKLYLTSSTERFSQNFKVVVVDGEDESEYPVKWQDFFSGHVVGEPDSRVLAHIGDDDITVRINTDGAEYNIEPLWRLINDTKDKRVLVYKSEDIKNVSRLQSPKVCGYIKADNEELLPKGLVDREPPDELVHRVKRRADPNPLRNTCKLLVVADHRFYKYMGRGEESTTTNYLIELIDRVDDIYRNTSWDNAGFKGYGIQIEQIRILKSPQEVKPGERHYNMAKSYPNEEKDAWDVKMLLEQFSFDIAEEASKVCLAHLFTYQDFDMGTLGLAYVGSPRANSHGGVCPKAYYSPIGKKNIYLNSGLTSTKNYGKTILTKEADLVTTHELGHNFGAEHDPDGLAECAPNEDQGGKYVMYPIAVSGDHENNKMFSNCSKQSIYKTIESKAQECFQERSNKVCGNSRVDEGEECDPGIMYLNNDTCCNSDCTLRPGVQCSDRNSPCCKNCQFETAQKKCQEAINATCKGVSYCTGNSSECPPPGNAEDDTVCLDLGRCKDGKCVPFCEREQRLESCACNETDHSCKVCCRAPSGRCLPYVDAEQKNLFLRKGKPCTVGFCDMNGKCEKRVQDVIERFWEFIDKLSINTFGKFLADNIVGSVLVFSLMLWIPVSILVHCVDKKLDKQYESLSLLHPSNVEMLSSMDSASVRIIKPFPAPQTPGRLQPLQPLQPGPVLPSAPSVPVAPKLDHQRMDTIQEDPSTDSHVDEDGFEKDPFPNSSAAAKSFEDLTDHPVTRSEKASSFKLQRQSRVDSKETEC

## Cc1cc(COc2ccc(C(=O)N[C@@H]3CN(C(C)(C)C)CC[C@@H]3C(=O)NO)cc2)c2ccccc2n1
[1]
  IC50: 2 nM
[2]
  Papp: 0.6 ×10⁻⁶ cm/s
[3]
  IC50: 44 nM

## Cc1cc(COc2ccc(C(=O)N[C@@H]3CCNC[C@@H]3C(=O)NO)cc2)c2ccccc2n1
[1]
  IC50: 24 nM
[2]
  Papp: 0.2 ×10⁻⁶ cm/s
[3]
  IC50: 620 nM

## Cc1cc(COc2ccc(C(=O)N[C@@H]3CN(CCN(C)C)CC[C@@H]3C(=O)NO)cc2)c2ccccc2n1
[1]
  IC50: 2 nM
[2]
  Papp: 0.1 ×10⁻⁶ cm/s
[3]
  IC50: 55 nM

## Cc1cc(COc2ccc(C(=O)N[C@@H]3CCCC[C@H]3C(=O)NO)cc2)c2ccccc2n1
[1]
  IC50: 2 nM
[3]
  IC50: > 3000 nM

## Cc1cc(COc2ccc(C(=O)N[C@@H]3CCCC[C@@H]3C(=O)NO)cc2)c2ccccc2n1
[1]
  IC50: 2 nM
[2]
  Papp: 3.4 ×10⁻⁶ cm/s
[3]
  IC50: 890 nM

## Cc1cc(COc2ccc(C(=O)NC3CCC3C(=O)NO)cc2)c2ccccc2n1 (configuration not stated)
[1]
  IC50: 1 nM
[2]
  Papp: 0.4 ×10⁻⁶ cm/s
[3]
  IC50: 2860 nM

## Cc1cc(COc2ccc(C(=O)N[C@@H]3CNCC[C@@H]3C(=O)NO)cc2)c2ccccc2n1
[1]
  IC50: 1 nM
[2]
  Papp: 0.2 ×10⁻⁶ cm/s
[3]
  IC50: 187 nM

## Cc1cc(COc2ccc(C(=O)N[C@@H]3CCCO[C@@H]3C(=O)NO)cc2)c2ccccc2n1
[1]
  IC50: 3 nM
[2]
  Papp: 0.06 ×10⁻⁶ cm/s
[3]
  IC50: 4110 nM

## Cc1cc(COc2ccc(C(=O)N[C@@H]3CCOC[C@@H]3C(=O)NO)cc2)c2ccccc2n1
[4]
  half-life: 84 min
[5]
  Vd: 1.6 L/kg
[6]
  bioavailability: 96%
[1]
  IC50: < 1 nM
  Ki: 0.15 nM
[2]
  Papp: 2.3 ×10⁻⁶ cm/s
[7]
  Ki: < 100 nM
[8]
  ED50: 2.2 mg/kg
[9]
  bioavailability: 58%
[10]
  AUC: 5.7 µM·h
[11]
  Activity: Not Active
[12]
  Ki: < 100 nM
[13]
  AUC: 2.7 µM·h
[14]
  fraction unbound: 0.075
[15]
  Ki: < 100 nM
[16]
  AUC: 65 µM·h
[17]
  ED50: 3 mg/kg
[18]
  clearance: 28.3 mL/min/kg
[19]
  Tmax: 24 min
[20]
  Tmax: 12 min
[21]
  half-life: 96 min
[22]
  clearance: 11.7 mL/min/kg
[3]
  IC50: 130 nM
[23]
  Vd: 0.4 L/kg
[24]
  AUC: 11 µM·h
[25]
  fraction unbound: 0.038
[26]
  Ki: < 100 nM
[27]
  fraction unbound: 0.17

## Cc1cc(COc2ccc(NC(=O)[C@@H]3[C@@H](C(=O)NO)CCCN3C)cc2)c2ccccc2n1
[3]
  IC50: 20 nM

## Cc1cc(COc2ccc(C(=O)N[C@@H]3COCC[C@@H]3C(=O)NO)cc2)c2ccccc2n1
[1]
  IC50: < 1 nM
[2]
  Papp: 0.4 ×10⁻⁶ cm/s
[3]
  IC50: 290 nM

## Cc1cc(COc2ccc(C(=O)N[C@H]3CNCC[C@@H]3C(=O)NO)cc2)c2ccccc2n1
[1]
  IC50: < 1 nM
[3]
  IC50: 393 nM
